Measured values published in publication PMC12463534, “Exploring the Anticancer Properties of 4-Phenylthiazole-Based Ru(II) and Os(II) Metallacycles Featuring 1-Methylimidazole as N-Donor Functionality” (Bioinorganic Chemistry and Applications, 2025).

Columns and labels:
[1] = Ruthenium levels in tissues by ICP-MS; format: in vivo; conditions: CT26-bearing mice, 2 h after last injection
Protocol: Tumor-specific organs and blood serum, harvested from the other animals 2 h after the last injection (Figure 5(c)), were measured for the average ruthenium content by inductively coupled plasma mass spectrometry (ICP-MS) of tissue homogenates.
CT26 cells (5 × 10^5 cells in 50-μL serum-free medium) were injected subcutaneously (s.c.) into the right flank of 8–16-week-old BALB/c mice (Envigo Laboratories, San Pietro Al Natisone, Italy). After 3 days, therapy treatment started on five consecutive days for 2 weeks. Animals were treated i.p. with 50 mg/kg 1c and 3c (all dissolved in 10% DMSO in 0.9% NaCl, 12 mice per group). The solvent control animals received 10% DMSO in 0.9% NaCl. Every day, the animals were monitored for the overall health conditions and tumor size was measured regularly by caliper measurement. Tumor volumes (mm^3) were calculated using following formula: length × width^2/2. […] Tumor growth and possible side effects of the treatment were evaluated by daily recording the tumor size by caliper measurement and parameters of the animal's overall health conditions. In the tissue sampling arm at the experiment, the mice were sacrificed by cervical dislocation 2 h after the last treatment. Tumors as well as organs were collected. Additionally, blood was drawn and incubated for 25 min to allow blood clotting. To isolate serum and blood pellets, the blood was centrifuged for 10 min at 17,900 g at room temperature. The supernatant characterized as serum was transferred to a new tube and centrifuged again to remove residual red blood cells. All collected samples were stored at −20°C and further processed for platinum measurements via ICP-MS.
The ruthenium concentration was determined by ICP-MS analysis. Ruthenium and rhenium standards were derived from LabKings (LabKings B.V., The Netherlands). The total ruthenium content was determined with a quadrupole-based ICP-MS instrument Agilent 7800 (Agilent Technologies, Tokyo, Japan) equipped with the Agilent SPS 4 autosampler (Agilent Technologies, Tokyo, Japan) and a MicroMist nebulizer at a sample uptake rate of approximately 0.2 mL·min^−1. […] Argon was used as plasma gas (15 L·min^−1) and as carrier gas (∼1.08 L·min^−1). The integration time was set to 0.1 s, and measurements were performed in 6 replicates with 100 sweeps. Rhenium served as internal standard for ruthenium.

[2] = tested on: SW480 colon adenocarcinoma cells; design: method as in PMID 38426897; conditions: MTT assay, exposure time 96 h; ref [5]; read-out: 50% inhibitory concentration SW480 (chlorido complexes, reference) (converted); cited from earlier work
[3] = tested on: CH1/PA-1 ovarian teratocarcinoma cells; design: method as in PMID 38426897; conditions: MTT assay, exposure time 96 h; ref [5]; read-out: 50% inhibitory concentration CH1 (chlorido complexes, reference) (converted); cited from earlier work
[4] = tested on: A549 lung adenocarcinoma cells; design: method as in PMID 38426897; conditions: MTT assay, exposure time 96 h; ref [5]; read-out: 50% inhibitory concentration A549 (chlorido complexes, reference) (converted); cited from earlier work
Balb/c mice = test: Toxicity experiments in Balb/c mice (MTD); conditions: mice, i.p.
Protocol: Finally, we were interested in the anticancer activity of selected complexes of our panel in an in vivo mouse setting. Before injecting the compounds in tumor-bearing mice, toxicity experiments were performed. […] On the last day of therapy, most animals were sacrificed and tissues as well as tumors collected. Only four mice (per group) were kept to get information on the impact of the drugs on the overall survival.

[5] = tested on: G4 forming sequences (h-Telo, bcl2, hTERT, Kit1, Kit2) and dsDNA; design: method as in PMID 38426897; conditions: recent work; ref [5]; cited from earlier work
SW480 cells = test: DCFH-DA assay, cellular ROS levels; format: cell-based, human; conditions: 2 h, concentration dependent
Protocol: For this approach, SW480 cells were subjected to the 2′,7′-dichlorofluorescin-diacetate (DCFH-DA) assay.
SW480 colon adenocarcinoma cells were trypsinized for 5 min in a humidified incubator at 37°C and under a 5% CO2 atmosphere. Supplemented MEM was added to stop trypsinization, and cells were centrifuged for 3 min at 1200 rpm (Heraeus Megafuge 1.0R). After cell counting, SW480 cells were seeded in 100-μL aliquots in densities of 2.5 × 10^4 cells/well into 96-well clear flat-bottom microplates (CytoOne, TC-treated, from Starlab). After incubation for 24 h, cells were washed with 200 μL of Hanks' balanced salt solution (HBSS; Sigma-Aldrich; supplemented with 1% heat-inactivated FCS). […] After washing cells with 200 μL of supplemented HBSS, serially diluted test compounds in phenol-red-free Opti-MEM (Gibco), supplemented with 1% heat-inactivated FCS, were added in 200-μl triplicates and tert-butyl hydroperoxide (TBHP) was applied as positive control. […] Blank-corrected values were calculated relative to negative controls (treated with drug-free supplemented Opti-MEM) from three independent experiments.

[6] = tested on: HCT116 multicellular tumor spheroids (3D); test: Resazurin assay, HCT116 3D multicellular tumor spheroids
Protocol: (§1) Both models were investigated by the fluorimetric resazurin assay after 96-h exposure.
(§2) HCT116 colorectal carcinoma cells (RRID:CVCL_0291 from ATCC) were cultivated in McCoy's 5A medium, supplemented with 10% heat-inactivated fetal bovine serum and 4 mM L-glutamine.
(§3) For 2D experiments, HCT116 cells were harvested from culture flasks by trypsinization, seeded in 100-μL aliquots into 96-well microculture plates (CytoOne, TC-treated, from Starlab) in densities of 2 × 10^3 cells per well, and incubated for 24 h prior to exposure to the test compounds. […] Stock solutions of test compounds were prepared in DMF, which were then diluted in McCoy's 5A-supplemented medium (not to exceed a final content of 0.5% v/v of organic solvent in the test plates), and serial dilutions were added in aliquots of 100 μL per well. […] After incubation for 4 h, fluorescence was measured with a microplate reader (Bio-Tek, SynergyHT) at a wavelength of 530 nm, additionally using a reference wavelength of 620 nm.

[7] = tested on: HCT116 colorectal cancer cell line (2D); test: Resazurin assay, HCT116 2D (monolayer) culture
Protocol: as §1, §2, §3

CT26 tumor = test: Anticancer activity in CT26 tumor-bearing BALB/c mice; format: in vivo; conditions: i.p. 50 mg/kg, 5 times a week for two weeks, did not reach statistical significance
Protocol: Figure 5 Anticancer activity of 1c and 3c in vivo. CT26-bearing BALB/c mice were treated i.p. with 50 mg/kg for five consecutive days for 2 weeks. (a) Impact on tumor growth; data are presented as mean ± SEM. […] On Day 15, most of the animals were sacrificed and tissues collected for further analyses. Of each group, 4 animals were kept to assess the impact on overall survival, which is shown in (b). Statistical significance was tested by log-rank test and Mantel–Cox post-test, ^∗p < 0.01. (c) The ruthenium levels measured by ICP-MS in the collected tissue samples of the mice, which were sacrificed 2 h after the last treatment.
CT26 cells (5 × 10^5 cells in 50-μL serum-free medium) were injected subcutaneously (s.c.) into the right flank of 8–16-week-old BALB/c mice (Envigo Laboratories, San Pietro Al Natisone, Italy). After 3 days, therapy treatment started on five consecutive days for 2 weeks. Animals were treated i.p. with 50 mg/kg 1c and 3c (all dissolved in 10% DMSO in 0.9% NaCl, 12 mice per group). The solvent control animals received 10% DMSO in 0.9% NaCl. Every day, the animals were monitored for the overall health conditions and tumor size was measured regularly by caliper measurement. Tumor volumes (mm^3) were calculated using following formula: length × width^2/2. In the overall survival arm of the experiment, mice were sacrificed by cervical dislocation in the case of a tumor length > 20 mm or tumor ulceration or a decreased body weight of ∼20%. Tumor growth and possible side effects of the treatment were evaluated by daily recording the tumor size by caliper measurement and parameters of the animal's overall health conditions. In the tissue sampling arm at the experiment, the mice were sacrificed by cervical dislocation 2 h after the last treatment. Tumors as well as organs were collected. Additionally, blood was drawn and incubated for 25 min to allow blood clotting. To isolate serum and blood pellets, the blood was centrifuged for 10 min at 17,900 g at room temperature. The supernatant characterized as serum was transferred to a new tube and centrifuged again to remove residual red blood cells. All collected samples were stored at −20°C and further processed for platinum measurements via ICP-MS.

Question: Which results are given for `CS(=O)(=O)c1ccc(-c2cscn2)[c]([Ru][Cl])c1.Cc1ccc(C(C)C)cc1` [Compound 1c]?
Answer: Kidney ruthenium levels, fold higher compared to 3c [1]: 10 fold; Ruthenium level in liver [1]: ~20 mg/kg; Ruthenium level in tumor [1]: ~1 mg/kg; IC50 [2]: 5.1 µM; IC50 [3]: 1600 nM; IC50 [4]: 12 µM; Tolerated dose (Balb/c mice): at least 50 mg/kg; Stabilization of DNA G-quadruplex structures [5]: stabilize DNA G-quadruplex (G4) structures; Effect on intracellular ROS levels (SW480 cells): constantly decrease ROS levels with increasing concentrations; Enhancement of cytotoxic activity by mesylation (1c vs 1a), 3D ([6]; HCT116 3D): 3.5 fold; IC50 ([6]; read-out: IC50 3D, HCT116 3D spheroids, resazurin assay, 96 h exposure): 8.9 ± 2.1 µM; Increase of cytotoxic activity by mesylation (1c vs 1a), 2D [7]: 2.8 times; IC50 ([7]; read-out: IC50 2D, resazurin assay, 96 h exposure): 6.5 ± 1.3 µM; Impact on tumor volume (anticancer activity) (CT26 tumor): slight anticancer activity
